This note sets out measurements from ChEMBL document CHEMBL4425174, “Design, synthesis and optimization of novel Alk5 (activin-like kinase 5) inhibitors” (Bioorg Med Chem Lett, 2016).

The data set is described as follows: Oral bioavailability in rat. Format: ADME, organism-based. The settings on record: in vivo.
As usually defined, the bioavailability is the share of a dose that reaches the circulation, judged against a reference dose that is usually intravenous. Read a low bioavailability as little systemic uptake. For `Fc1cc(F)c(-c2cc(Nc3ccncc3)c3cc[nH]c3n2)cc1Cl`, the bioavailability was determined as 13%.
To `Fc1ccc(-c2cc(Nc3ccncc3)c3cc[nH]c3n2)c(F)c1` belongs 65%; to `C[C@H](O)CNC(=O)c1cnccc1Nc1cc(-c2cc(Cl)ccc2F)nc2[nH]ccc12`, 17%.
To `Cc1cnc(-c2cc(Cl)ccc2F)cc1-n1c(=O)n(CC(N)=O)c2cnccc21` [TP-008] belongs 62%.
